Assay results as given in PubChem BioAssay AID1200 (NMMLSC, 2008).
The source made the active and inactive calls. The rule behind the calls is not given here.

How the values were obtained:
[1] = tested on: prostate cells, cell count (flow cytometry events), cytotoxicity; assay: prostate cell loss as cytotoxicity readout, dose response, cytotoxicity control for prostate cell differentiation activator project, flow cytometry event count (AID 1200)
[2] = as above; conditions: prostate cells, cell count (flow cytometry events), cytotoxicity; at 30 µM (top of the series)

SMILES	EC50 [1]	cell count (% of control) [2]
Cn1c(=O)cc(SCC(=O)NCCCN2CCN(c3ccccc3F)CC2)c2ccccc21	1.17 µM	–
Nc1ccc(-n2ccnc2)cc1	1.04 µM (inactive)	–
CCN1CCN(CCNC(=O)C2CCN(Cc3nc(-c4ccc(Cl)cc4)oc3C)CC2)CC1	8.88 µM (inactive)	–
CCN(CC)CCNC(=O)c1ccc(N2CCCCC2)c(NS(=O)(=O)c2ccc(C)cc2)c1	0.145 µM	–
O=C(NCCCN1CCN(c2ccc(F)cc2)CC1)c1cccc(N2CCCC2=O)c1	0.441 µM (inactive)	–
Cc1ccc2c(c1)-c1c(cnn1CC(=O)Nc1ccccc1N1CCN(C)CC1)CO2	9.77 µM	–
CCCOc1ccccc1C1CC(=O)Nc2cc3c(cc21)OCO3 (centres undefined)	0.373 µM (inactive)	–
O=C(Cn1cc2c(n1)CCCC2)NCCCN1CCN(c2ccccc2F)CC1	–	382% (inactive)
CCn1c(=O)cc(SCC(=O)NCCN2CCN(Cc3ccccc3)CC2)c2ccccc21	14.5 µM (inactive)	–
Cc1cccc(-c2nsc(SCC(=O)Nc3nccs3)n2)c1	3.45 µM (inactive)	–
CCN(CCNC(=O)C1CCN(Cc2nc(-c3cccc(Cl)c3)oc2C)CC1)c1ccccc1	–	141% (inactive)
CCN(CCNC(=O)C1CCN(Cc2nc(-c3ccc(Cl)cc3)oc2C)CC1)c1ccccc1	–	22% (inactive)
COc1ccc(Cc2nc(-c3ccc(-n4cccc4)cc3)no2)cc1OC	3.01 µM (inactive)	–
O=C(NCCCN1CCN(c2cccc(Cl)c2)CC1)c1cccc(N2CCCC2=O)c1	11.2 µM	–
CCN1CCN(C(c2cccs2)C(C)NS(=O)(=O)c2ccc(Br)cc2)CC1 (centres undefined)	10.1 µM (inactive)	–
Cc1cc(C)nc(N2CCC(C(=O)Nc3ccc(Oc4ccccc4)cc3)CC2)n1	–	264% (inactive)
COc1cc2nc(N3CCN(C(=O)C4COc5ccccc5O4)CC3)nc(N)c2cc1OC (centres undefined)	9.6 µM (inactive)	–
COc1ccc(N2CCN(CCCNC(=O)c3cc4sccc4n3C)CC2)cc1	10.1 µM (inactive)	–
O=C(c1ccccc1)c1ccc(N2CCNCC2)cc1	> 30 µM (inactive)	–
Cn1c(C(=O)NCCCN2CCN(c3cccc(Cl)c3)CC2)cc2c(=O)n(C)c3ccccc3c21	5.27 µM	–
CC1CCCCN1CCNC(=O)c1cc2c(-c3ccccc3F)nn(C)c2s1 (centres undefined)	8.61 µM	–
COC(=O)c1cc(-c2ccccc2)sc1NC(=O)c1cc(C)on1	0.326 µM (inactive)	–
CCc1ccc(-c2nc(CN3CCC(C(=O)NCc4ccc(F)cc4)CC3)c(C)o2)cc1	1.8 µM	–
Cn1nc(-c2ccc(Cl)cc2)c2cc(C(=O)NCCCN3CCOCC3)sc21	10.1 µM (inactive)	–

SMILES	EC50 [1]	cell count (% of control) [2]
CCOC(=O)c1[nH]c(C)c(C(=O)N2CCc3ccccc32)c1C	0.139 µM	–
COc1ccccc1N1CCN(c2nc3ccccc3nc2C(C#N)C(=O)OC(C)C)CC1 (centres undefined)	9.78 µM (inactive)	–
O=C(CCN1C(=O)COc2ccccc21)NCCCN1CCN(c2ccc(F)cc2)CC1	> 30 µM (inactive)	–
CCOC(=O)c1c(C)n(C)c2ccc(OCC(O)CNC(CC)CO)cc12 (centres undefined)	10.9 µM (inactive)	–
CN1CCN(CCCNC(=O)c2cc3c(-c4ccc(Cl)cc4)nn(C)c3s2)CC1	4.25 µM	–
COc1ccc2cc3cc(C(=O)Nc4ccccc4N4CCN(C)CC4)oc3nc2c1	2.06 µM	–
CCn1c(=N)n(CC(O)COc2cccc(C)c2)c2ccccc21 (centres undefined)	–	266% (inactive)
C[C@H]1CCC/C=C/C2C[C@H](O)CC2[C@H](O)/C=C/C(=O)O1 (some centres undefined)	–	129% (inactive)
Cc1ccc(C)c(N2CCN(CCCNC(=O)Cn3cc4c(n3)CCCCC4)CC2)c1	11.1 µM	–
N=c1n(CCN2CCCCC2)c2ccccc2n1CC(O)COc1ccccc1 (centres undefined)	–	311% (inactive)
COc1ccc(-c2cc(C(F)(F)F)nc(N3CCN(Cc4ccccc4)CC3)n2)cc1OC	9.88 µM (inactive)	–
CCOC(=O)c1c(C)[nH]c(C(=O)COC(=O)C2CC2C)c1C (centres undefined)	0.441 µM	–
CCn1c(=O)cc(SCC(=O)NCCCN2CCN(c3ccccc3F)CC2)c2ccccc21	15.6 µM (inactive)	–
CCN1CCN(c2ncc(C(=O)Nc3cc(Cl)c(OC)cc3OC)c3ccccc23)CC1	2.94 µM	–
CCOc1cccc2cc(-c3cn4cc(C)ccc4n3)c(=O)oc12	–	44.8% (inactive)
Cn1nc(-c2ccc(Cl)cc2)c2cc(C(=O)NCCCN3CCCC3)sc21	4.21 µM	–
CCCc1cc(-c2n[nH]c(C)c2-c2ccc(C(=O)OCC)o2)c(O)cc1O	3.64 µM (inactive)	–
CN(CC(O)COc1ccc(OCC(O)CN(C)C2CCCCC2)cc1)C1CCCCC1 (centres undefined)	0.424 µM	–
COc1ccc(-c2noc(CCC(=O)NCCCN3CCC(Cc4ccccc4)CC3)n2)cc1	–	276% (inactive)
Cc1cc(N2CCN(C)CC2)nc2ccc(NC(=O)c3ccc4c(c3)OCO4)cc12	–	102% (inactive)
CN(C)CCCN1c2ccccc2CCc2ccc(Cl)cc21	5.46 µM	–
CCN(CC)CCCNC(=O)c1cc2c(-c3ccc(Cl)cc3)nn(C)c2s1	2.64 µM	–
CCCS(=O)(=O)N1CCCC(C(=O)NCCCN2CCN(c3ccc(F)cc3)CC2)C1 (centres undefined)	0.328 µM (inactive)	–
Oc1c(CN2CCCCC2)cc(COCc2ccccc2)c2cccnc12	2.96 µM	–

SMILES	EC50 [1]	cell count (% of control) [2]
CCN(CC)CC(=O)Nc1ccc(-c2nc3cc(NC(=O)CN(CC)CC)ccc3o2)cc1	8.06 µM	–
CC1CCCCN1CCNC(=O)c1ccc2c(=O)n(CCc3ccccc3)c(=O)[nH]c2c1 (centres undefined)	10.5 µM (inactive)	–
Cc1ccc(Cl)cc1N1CCN(C(=O)c2cc3c(=O)n(C)c4ccccc4c3n2C)CC1	0.155 µM	–
Cc1oc(-c2ccc(Cl)cc2)nc1CN1CCC(C(=O)N2CCN(Cc3ccccc3)CC2)CC1	3.29 µM	–
Cc1cc(N2CCN(C)CC2)nc2ccc(NC(=O)c3ccc(Br)o3)cc12	8.72 µM	–
CCOC(=O)c1ccccc1NC(=O)Cn1c(-c2nonc2N)nc2ccccc21	0.137 µM	–
Cc1ccccc1-c1nc(CN2CCCC(C(=O)NCCCN3CCOCC3)C2)c(C)o1 (centres undefined)	13.9 µM (inactive)	–
Cc1ccc(Nc2cc(=O)n(C3CCCCC3)c(=O)[nH]2)cc1C	–	196% (inactive)
COc1ccc(-c2oc3ncn(CCN4CCOCC4)c(=N)c3c2-c2ccc(OC)cc2)cc1	3.2 µM	–
Cc1ccccc1-c1nc(CN2CCC(C(=O)NCCCN3CC(C)CC(C)C3)CC2)c(C)o1 (centres undefined)	2.11 µM	–
COc1ccccc1N1CCN(Cc2cc(Br)c(O)c3ncccc23)CC1	1.09 µM	–
COc1ccccc1NC(=O)c1nc[nH]c1C(=O)Nc1ccccc1OC	–	546% (inactive)
Cc1nc2ncnn2c(C)c1CCC(=O)NCCCN1CCN(c2cccc(Cl)c2)CC1	–	1150% (inactive)
COc1ccc(CCn2c(=N)c(C(=O)NCc3ccco3)cc3c(=O)n4ccccc4nc32)cc1	10.2 µM (inactive)	–
CCOc1ccccc1NC(=O)c1nc[nH]c1C(=O)Nc1ccccc1OCC	3.26 µM (inactive)	–
Cn1c(=O)[nH]c(=O)c2c1nc(Br)n2CCCSc1nc2ccccc2o1	–	227% (inactive)
Cc1ccccc1CS(=O)(=O)CCC(=O)NCCCN1CCN(c2ccccc2F)CC1	–	854% (inactive)
COc1ccc(-c2noc(-c3cc(Cl)ccc3Cl)n2)cc1OC	–	347% (inactive)
CC(C)N1CCC2(CC1)N=C(c1ccc3c(c1)OCO3)CC(c1cc(Cl)ccc1O)N2 (centres undefined)	1.86 µM	–
CCN1CCN(c2cc(C)c3cc(NC(=O)c4ccc(Br)o4)ccc3n2)CC1	3.98 µM	–
COc1ccc(Nc2nc(N)nc(CN3CCC(Cc4ccccc4)CC3)n2)cc1	2.46 µM	–
Clc1ccc(COC(Cn2ccnc2)c2ccc(Cl)cc2Cl)cc1 (centres undefined)	–	350% (inactive)
Cc1ccccc1-c1nc(CN2CCC(C(=O)NCc3cccnc3)CC2)c(C)o1	1.99 µM	–
COc1ccc(N2CCN(CCCNC(=O)CC3Oc4ccc(C)cc4NC3=O)CC2)cc1 (centres undefined)	3.54 µM (inactive)	–

SMILES	EC50 [1]	cell count (% of control) [2]
CCN1CCCC1CNC(=O)C1CCN(Cc2nc(-c3cccc(Br)c3)oc2C)CC1 (centres undefined)	1.14 µM	–
Cc1ccccc1-c1nc(CN2CCC(C(=O)NCCCN3CCOCC3)CC2)c(C)o1	3.44 µM (inactive)	–
O=c1cc(-c2ccccc2)[nH]c2ccccc12	–	105% (inactive)
O=S1(=O)C=C(Sc2nc3ccccc3s2)c2ccccc21	0.959 µM	–
Cc1ccc(CNc2nc3ccccc3n3nnnc23)cc1	–	348% (inactive)
CN(CCNC(=O)C1CC(=O)N(c2ccc(F)c(Cl)c2)C1)Cc1ccccc1 (centres undefined)	27.5 µM (inactive)	–
CN(C)c1ccc(CNC2CC(C)(C)NC(C)(C)C2)cc1	> 30 µM (inactive)	–
COc1ccc(CCN2CCC(Nc3nc4ccccc4n3Cc3ccc(F)cc3)CC2)cc1	7.83 µM (inactive)	–
CN1CCN(c2cc3c(c4c2[nH]c2ccccc24)C(=O)CC(C)(C)C3)CC1	4.6 µM	–
CCN(CC)CCNC(=O)c1cc2c(-c3ccc(Cl)cc3)nn(C)c2s1	3.88 µM	–
CCN1CCCC1CNC(=O)c1cc2c(-c3ccc(Cl)cc3)nn(C)c2s1 (centres undefined)	4.83 µM	–
CCCN(CCC)CCNC(=O)C1CCN(Cc2nc(-c3ccc(Cl)cc3)oc2C)CC1	6.46 µM	–
Cn1c(=O)cc(OCC(=O)NCCCN2CCN(c3ccccc3F)CC2)c2ccccc21	14 µM (inactive)	–
Cc1ccc(OCC(O)Cn2c(=N)n(CCN3CCCCC3)c3ccccc32)cc1 (centres undefined)	3.48 µM	–
Cc1cc2c(=O)n(CC(=O)N3CCN(c4ccccc4)CC3)cnc2s1	0.0344 µM (inactive)	–
CC(C)(C)c1ccc(C(O)CCCN2CCC(C(O)(c3ccccc3)c3ccccc3)CC2)cc1 (centres undefined)	0.00318 µM (inactive)	–
Cc1ccccc1-c1nc(CN2CCC(C(=O)NCCCN3CCCC3)CC2)c(C)o1	0.358 µM (inactive)	–
CCOc1ccc(-c2cc(C(=O)NCCCN3CCN(CC)CC3)c3ccccc3n2)cc1	11.1 µM (inactive)	–
CCOc1ccc(NC(=O)COc2nsnc2N2CCCCC2)cc1	–	226% (inactive)
COc1ccc(N2CCN(CCCNC(=O)CCCn3c(=O)[nH]c4ccsc4c3=O)CC2)cc1	–	330% (inactive)
COc1ccc(-c2ccc(-c3noc(-c4ccccc4)n3)c(OC)n2)cc1	3.16 µM (inactive)	–
Cc1oc(-c2ccc(Cl)cc2)nc1CN1CCC(C(=O)NCCCN2CCOCC2)CC1	17.8 µM (inactive)	–
